According to patent publication US11103504B2, “Combination of a DNA condensation-inducing compound and an Eis inhibitor for antibiotic treatment” (priority 2018, dated 2021):

Tests used:
[1] = test system: M. smegmatis; assay: Live cell imaging with bacterial viability staining; format: cell-based, Mycobacterium smegmatis; details: live-cell imaging started 5 minutes after FA addition
[2] = test system: M. tuberculosis mc^26030; assay: DNA-condensation incidence by fluorescence microscopy; format: cell-based, Mycobacterium tuberculosis; details: for fraction of bacilli with condensed DNA: 20 times the MIC50, 1 hour, vs control, P<0.05, FIG. 2D; for induction of condensation of the DNA: summary statement
[3] = test system: M. tuberculosis mc^26030; format: cell-based, Mycobacterium tuberculosis; details: 1 hour after FA treatment vs untreated
[4] = test system: M. smegmatis mc^2 155; assay: DNA volume quantification (deconvolved wide-field FM); format: cell-based, Mycobacterium smegmatis; details: incubated with FA for 1 hour, FIG. 5B
Procedure: Z-stack Wide-field FM images of fixed M. smegmatis mc^2 155 stained for DNA and lipids were collected at 200 nm increments. Deconvolution and DNA volume quantification was subsequently performed using standard deconvolution parameters of Huygens Professional software (Scientific Volume Imaging, SVI, Hilversum, The Netherlands). Average volume was determined for 60 bacteria per condition per experiment and standard deviation was calculated with 2-tailed T-test.

[5] = test system: M. smegmatis mc^2155; assay: DNA localization / DNA-condensation by fluorescence microscopy; format: cell-based, Mycobacterium smegmatis
[6] = test system: M. smegmatis mc^23449 SMC triple deletion mutant; format: cell-based, Mycobacterium smegmatis; details: FA 1 hour, FIGS. 6A-B
[7] = test system: M. smegmatis mc^2155; assay: Monitoring mycobacterial survival (OD600, CFU); format: cell-based, Mycobacterium smegmatis; details: combination of fusidic acid and Eis inhibition
Procedure: M. smegmatis mc^2155 overnight cultures were treated with FA, EIS inhibitor 1a*, or a combination hereof. Cultures were treated with antibiotic for 1 hour before second antibiotic was administered. Before treatment, and after 2 hours and at day 1,2,3 and 6, the OD600 was determined with a spectrophotometer, and a sample of the culture was fixed, or plated in a dilution series on 7H10 plates in triplo. At day 2, the antibiotic treatment was repeated. At least 3 independent experiments were quantified per condition.
In all experiments, factor correction was applied to remove systematic differences between the different measuring sessions needed to obtain the results. In case of 2 experimental conditions, Student's t-test was applied. […] To further dissect these effects, a 1-way ANOVA per time point was performed.

[8] = test system: M. smegmatis mc^2155; assay: Transmission electron microscopy of ultrathin sections; format: cell-based, Mycobacterium smegmatis; details: FA treated, early log phase

CC(=O)O[C@H]1C[C@@]2(C)[C@@H](C[C@@H](O)[C@H]3[C@@]4(C)CC[C@@H](O)[C@@H](C)[C@@H]4CC[C@@]32C)/C1=C(\CCC=C(C)C)C(=O)O [fusidic acid]
time until first bacteria converted from viable to inviable [1]: 16 min | incidence of DNA-condensation after wash-out (reversibility) [2]: increased until 6 hours after treatment, followed by a gradual reduction | fraction of bacilli with condensed DNA [2]: increased the percentage bacteria with condensed DNA significantly | DNA localization after FA treatment ([2]; same experimental conditions as M. smegmatis, FIG. 2B): condensed their DNA into a single nucleoid | induction of condensation of the DNA [2]: can induce condensation of the DNA | percentage of nonviable bacteria with condensed DNA [3]: did not differ | percentage of viable bacteria with condensed DNA [3]: increased significantly | average 3D volume of the DNA clusters [4]: 0.24 μm^3 | DNA distribution after 2 days ([5]; 2 days of incubation, first agent 1 hour before second): still displayed condensed DNA | bacteria that condensed their nucleoid ([5]; after 1 hour of antibiotic stress, FIG. 2C): more than 80% | bacteria that condensed their DNA into a single nucleoid after FA treatment ([5]; early log phase, FIG. 2A): more than 90% | DNA condensation after FA treatment in SMC triple knock out [6]: clearly visible | potentiation of efficacy by the combination [7]: 10 fold | ultrastructural DNA localization (TEM) [8]: bundles of DNA were localized in a single compact nucleoid

[H]/N=C(/N)N[C@H]1[C@H](O)[C@@H](O)[C@H](O[C@@H]2O[C@@H](C)[C@](O)(C=O)[C@H]2O[C@@H]2O[C@@H](CO)[C@H](O)[C@@H](O)[C@@H]2NC)[C@@H](N/C(N)=N\[H])[C@@H]1O [streptomycin]
fraction of bacilli with condensed DNA [2]: increased the percentage bacteria with condensed DNA significantly | induction of condensation of the DNA [2]: can induce condensation of the DNA

NNC(=O)c1ccncc1 [isoniazid]
induction of condensation of the DNA [2]: can induce condensation of the DNA

CCn1cc(C(=O)O)c(=O)c2ccc(C)nc21 [nalidixic acid]
fraction of bacilli with condensed DNA [2]: increased the percentage bacteria with condensed DNA significantly | induction of condensation of the DNA [2]: can induce condensation of the DNA

CC(=O)NC[C@H]1CN(c2ccc(N3CCOCC3)c(F)c2)C(=O)O1 [linezolid]
induction of condensation of the DNA [2]: can induce condensation of the DNA
